Read-outs that look alike come from different tables or passages of the source.

For data set [1] the following is noted: low = typically inferior or equal to 20%, cited from earlier work.
The test system of data set [2] is HFD C57/BL6 mice. Description: Fasting glycemia after 4 weeks of oral treatment in high fat diet mice. The data set is classed as in vivo. As for the experimental part:
FIG. 2: NC or HFD C57/BL6 mice were gavaged daily with saline or one of three doses of Rivaroxaban (1, 2.5 or 5; n=5 per group) for 4 weeks. Histograms show fasting glycemia after 4 weeks of chronic treatment with Rivaroxaban. NC saline: control C57/BL6 mice fed with normal chow and gavaged with saline for 4 weeks. HFD saline: control C57/BL6 mice fed with high fat diet and gavaged with saline for 4 weeks. HFD+X1: C57/BL6 mice fed with high fat diet and gavaged with 1 mg/kg Rivaroxaban for 4 weeks. HFD+X2.5: C57/BL6 mice fed with high fat diet and gavaged with 2.5 mg/kg Rivaroxaban for 4 weeks. HFD+X5: C57/BL6 mice fed with high fat diet and gavaged with 5 mg/kg Rivaroxaban for 4 weeks. Data were analyzed by either one or two-way ANOVA with Tukey's multiple comparison tests and presented as mean±S.E.M. *P<0.05, **P<0.01, ***P<0.001. […]
(§1) An Oral Glucose Tolerance Test (OGTT) was performed on 6-hfasted mice. […] Glycemia was measured with a glucometer (Roche Diagnostics) from blood collected at the tail vein 30 min before the glucose […] and 15, 30, 60, 90 and 120 min after the gavage. The glucose tolerance index was calculated by adding the glycemic values from 30 to 90 min after glucose gavage divided by the corresponding duration.
(§2) After 4 weeks of treatment the inventors measured fasting glycaemia and glucose intolerance (FIGS. 7 and 8).

Data set [3] deals with HFD C57/BL6 mice. Description: Oral glucose tolerance test (OGTT) after 4 weeks of oral treatment in high fat diet mice. The data set is classed as in vivo. As for the experimental part: FIG. 3: NC or HFD C57/BL6 mice were gavaged daily with saline or one of three doses of Rivaroxaban (1, 2.5 or 5; n=5 per group) for 4 weeks. Graphs show oral glucose tolerance test (OGTT) (1.5 g/kg) after 4 weeks of chronic treatment with Rivaroxaban. NC-NaCl: control C57/BL6 mice fed with normal chow and gavaged with saline for 4 weeks. HFD-NaCl: control C57/BL6 mice fed with high fat diet and gavaged with saline for 4 weeks. HFD-X1 mg/kg: C57/BL6 mice fed with high fat diet and gavaged with 1 mg/kg Rivaroxaban for 4 weeks. HFD-X2.5 mg/kg: C57/BL6 mice fed with high fat diet and gavaged with 2.5 mg/kg Rivaroxaban for 4 weeks. HFD-X5 mg/kg: C57/BL6 mice fed with high fat diet and gavaged with 5 mg/kg Rivaroxaban for 4 weeks.
FIG. 4: NC or HFD C57/BL6 mice were gavaged daily with saline or one of […] of Rivaroxaban (1, 2.5 or 5; n=5 per group) for 4 weeks. Histograms show glucose intolerance corresponding index (μM/min) from 30 min to 90 min after glucose administration. NC saline: control C57/BL6 mice fed with normal chow and gavaged with saline for 4 weeks. HFD saline: control C57/BL6 mice fed with high fat diet and gavaged with saline for 4 weeks. HFD+X1: C57/BL6 mice fed with high fat diet and gavaged with 1 mg/kg Rivaroxaban for 4 weeks. HFD+X2.5: C57/BL6 mice fed with high fat diet and gavaged with 2.5 mg/kg Rivaroxaban for 4 weeks. HFD+X5: C57/BL6 mice fed with high fat diet and gavaged with 5 mg/kg Rivaroxaban for 4 weeks. Data were analyzed by either one or two-way ANOVA with Tukey's multiple comparison tests and presented as mean±S.E.M. *P<0.05, **P<0.01, ***P<0.001.
FIG. 5: NC or HFD C57/BL6 mice were gavaged daily with saline or one of […] of Rivaroxaban (1, 2.5 or 5; n=5 per group) for 4 weeks. Histograms show diabetes and glucose intolerance corresponding index (μM/min) from 30 min before to 90 min after glucose administration. NC saline: control C57/BL6 mice fed with normal chow and gavaged with saline for 4 weeks. HFD saline: control C57/BL6 mice fed with high fat diet and gavaged with saline for 4 weeks. […] Data were analyzed by either one or two-way ANOVA with Tukey's multiple comparison tests and presented as mean±S.E.M. *P<0.05, **P<0.01, ***P<0.001. […]
as §1, §2

In a further data set the test system is HFD mice. Put plainly: Bacterial translocation: 16S rDNA copies in mesenteric adipose tissue of HFD mice. Conditions: Rivaroxaban 0.2, 0.5 and 1 mg/kg oral gavage daily, 4 weeks, vs non-treated HFD mice, FIG. 6. The data set is classed as in vivo. As for the experimental part: To explore whether intestinal FXa inhibition regulates intestinal permeability the inventors have treated HFD mice daily during 4 weeks with 3 different doses of Rivaroxaban by oral gavage. The inventors chose low Rivaroxaban concentrations (0.2, 0.5 and 1 mg/kg) to have an intestinal effect only and avoid systemic anti-coagulation. After 4 weeks of treatment the number of 16S rDNA copies was measured in mesenteric adipose tissue in order to evaluate bacterial translocation.

A further data set relates to mouse model of diabetes. The conditions noted are these: administered into a mouse model of diabetes; cited from earlier work.

`CO[C@H]1O[C@H](COS(=O)(=O)O)[C@@H](O[C@@H]2O[C@@H](C(=O)O)[C@@H](O[C@H]3O[C@H](COS(=O)(=O)O)[C@@H](O[C@@H]4O[C@H](C(=O)O)[C@@H](O[C@H]5O[C@H](COS(=O)(=O)O)[C@@H](OC)[C@H](OC)[C@H]5NC(=O)CCCCCNC(=O)CCCC[C@@H]5SC[C@@H]6NC(=O)N[C@@H]65)[C@H](OC)[C@H]4OC)[C@H](OS(=O)(=O)O)[C@H]3OS(=O)(=O)O)[C@H](OC)[C@H]2OC)[C@H](OS(=O)(=O)O)[C@H]1OS(=O)(=O)O` [idrabiotaparinux]: the oral bioavailability entry in data set [1] is “low oral bioavailability”.
`CO[C@H]1O[C@H](COS(=O)(=O)O)[C@@H](O[C@@H]2O[C@@H](C(=O)O)[C@@H](O[C@H]3O[C@H](COS(=O)(=O)O)[C@@H](O[C@@H]4O[C@H](C(=O)O)[C@@H](O[C@H]5O[C@H](COS(=O)(=O)O)[C@@H](OC)[C@H](OC)[C@H]5OC)[C@H](OC)[C@H]4OC)[C@H](OS(=O)(=O)O)[C@H]3OS(=O)(=O)O)[C@H](OC)[C@H]2OC)[C@H](OS(=O)(=O)O)[C@H]1OS(=O)(=O)O` [idraparinux]: in data set [1], the oral bioavailability result is on record as “low oral bioavailability”.
`CC(=N)N1CC[C@H](Oc2ccc([C@H](Cc3ccc4ccc(C(=N)N)cc4c3)C(=O)O)cc2)C1` [DX-9065]: in data set [1], the oral bioavailability entry is listed as “low oral bioavailability”.
As to `O=C(NC[C@H]1CN(c2ccc(N3CCOCC3=O)cc2)C(=O)O1)c1ccc(Cl)s1` [Rivaroxaban, rivaroxaban], the “fasting glycemia (increase induced by high fat diet)” value in the data set with HFD C57/BL6 mice [2] (HFD C57/BL6 mice, Rivaroxaban 1, 2.5 or 5 mg/kg oral gavage, FIG. 2) is listed as “abolished”. The “glucose intolerance index (30 min to 90 min after glucose administration), HFD-induced increase” value in the data set with HFD C57/BL6 mice [3] (5 mg/kg Rivaroxaban oral gavage, FIG. 4) was “reduced”. The “diabetes and glucose intolerance index (30 min before to 90 min after glucose administration)” value in the data set with HFD C57/BL6 mice [3] (5 mg/kg Rivaroxaban oral gavage, vs HFD saline mice, FIG. 5) is “significant reduction”. Moreover, the “blood glucose concentration following oral glucose challenge (OGTT)” value in the data set on HFD C57/BL6 mice [3] (oral Rivaroxaban 1, 2.5 or 5 mg/kg, vs HFD mice gavaged with saline, glucose 1.5 g/kg, FIG. 3) is “reduced”. Besides, the “bacterial translocation (number of 16S rDNA copies in mesenteric adipose tissue)” value with HFD mice is “reduce bacterial translocation”. Also, the antithrombotic effects result with mouse model of diabetes is recorded as “displayed antithrombotic effects”.
With enoxaparin, in data set [1], the oral bioavailability entry is “low oral bioavailability”.
On to `COC(=O)[C@H](Cc1cccc(C(=N)N)c1)[C@@H](C)NC(=O)c1ccc(-c2cc[n+]([O-])cc2)cc1` [Otamixaban, otamixaban], for which the fasting glycaemia result in the data set on HFD C57/BL6 mice [2] (HFD mice, Otamixaban 1 and 5 mg/kg oral gavage, FIG. 7) is “reduces fasting glycaemia”. The “glucose intolerance (OGTT)” value with HFD C57/BL6 mice [3] (Otamixaban 1 and 5 mg/kg oral gavage, FIG. 8) is reported as “reduces glucose intolerance”. The oral bioavailability entry in data set [1] is given as “low bioavailability”; in data set [1] (listed as otamixaban), “low oral bioavailability”.

The values are drawn from US10213434B2, “Use of factor Xa inhibitors for regulating glycemia” (VAIOMER, priority 2015, dated 2019).
